What all share (assay): growth of human tumour cells (NCI), 48 h
The test system of assay [1] is MCF7 breast.
Assay [2] relates to K-562 leukemia.
In assay [3] the test system is SK-MEL-2 melanoma.
Assay [4] relates to SW-620 colon.
Assay [5] relates to SF-268 CNS.
For assay [6], the system named is UO-31 renal.
Assay [7] concerns NCI-H226 lung.
Assay [8] deals with UACC-257 melanoma.
The subject of assay [9] is A549 NSCLC.
Assay [10] relates to MDA-MB-435.

Each structure is given as a SMILES string. Where “and” joins values, the source holds several entries; their conditions need not be identical. Equal values may be shown once.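 The compound was tested at five concentrations on cells cultured in 96-well plates, with a 48-hour exposure period. GI50 marks 50% less growth. At the TGI there is no net growth.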 Where only a bound is given, the exact number is not on record here.

Take `CC1=C2C(=CO[C@H](C)[C@H]2C)C(=O)C(C(=O)O)=C1O`: the GI50 in assay [1] was 24.5 µM; in assay [2], 36.9 µM; in assay [3], 18.7 µM; in [4] it was 26.9 µM; in assay [5] it was 22 µM; in assay [6] it was 22.3 µM. In addition, the GI50 in [7] is 18.4 µM; in assay [9], 31.1 µM. In addition, the TGI in assay [1] is 52.8 µM and 51.9 µM; in [2] it was 54.8 µM; in assay [3], 48.1 µM and 37.5 µM; in assay [4], > 74.5 µM and 77.4 µM; in assay [5], 59.2 µM and 38.2 µM; in assay [6], 106 µM and 50.6 µM. Moreover, the TGI in [7] is 59.9 µM and 47.4 µM; in assay [8] it was over 87.8 µM; in [9] it was 142 µM and > 88.1 µM; in assay [10], 76.1 µM.

As for `O=C(c1cccs1)N1CCN(C(=O)c2cccs2)C1=S`, the TGI in assay [1] is 14.8 µM; in assay [2] it was over 45.2 µM; in assay [3], 28.3 µM; in assay [4] it was 24.6 µM; in assay [5], 20 µM; in [6] it was 8.5 µM. Further, the TGI in assay [7] is 34.7 µM; in [8], 22.9 µM; in [9] it was 19.8 µM; in [10] it was 10.2 µM.

In the case of `O=C(N/N=C/C=C/c1ccccc1)c1ccccc1Nc1ccccc1C(=O)N/N=C/C=C/c1ccccc1`, the TGI in assay [1], in assay [2], in [3], in [4], in [5] and in assay [6] was over 100 µM each time. The TGI in assay [7], in [8], in [9] and in [10] was over 100 µM in each case.

Regarding `CN1CC2=C(NC(=S)NC2c2ccccc2)/C(=C/c2ccccc2)C1` (configuration not stated), the TGI in assay [1], in [2], in assay [3], in assay [4], in [5] and in assay [6] was over 100 µM throughout. The TGI in assay [7], in assay [8], in assay [9] and in [10] was over 100 µM in each case.

As to `COC(=O)C1C(=O)N(C)C(=O)N2CCCC12` (configuration not stated), the TGI in assay [1], in assay [2], in [3], in assay [4], in assay [5] and in assay [6] was over 100 µM each time. For the same compound, the TGI in assay [7], in [8], in assay [9] and in assay [10] was over 100 µM each time.

Turning to `CCc1cc2c(c3c1CCCC3=O)CC1(Cc3ccc(C(=O)OC)cc3C1)C2` (configuration not stated), the TGI in [1], in assay [2], in [3], in assay [4], in assay [5] and in assay [6] was over 100 µM throughout. Further, the TGI in [7], in [8], in assay [9] and in assay [10] was over 100 µM throughout.

For the compound `Cc1ccccc1N=C(N)Nc1ccccc1C`, the TGI in assay [1], in [2], in [3], in [4], in [5] and in assay [7] was over 100 µM each time. In addition, the TGI in assay [8], in assay [9] and in assay [10] was over 100 µM throughout.

With `COc1cc(C2c3cc4c(cc3C3OC[C@@H]2C3CO)OCO4)cc(OC)c1OC` (some centres not stated), the TGI in [1], in assay [2], in assay [3], in [4], in assay [5] and in assay [6] was over 100 µM in each case. Further, the TGI was 47 µM in assay [7], 76.5 µM in [8], over 100 µM in assay [9] and 51.1 µM in assay [10].

With `CCOC(=O)Nn1c(CC#N)nnc1Cc1ccccc1`, the TGI in assay [1], in assay [2], in assay [3], in assay [4], in assay [5] and in assay [6] was over 100 µM in each case. For the same compound, the TGI in assay [7], in [8], in assay [9] and in assay [10] was over 100 µM in each case.

On to `CC(Oc1ccccc1Cl)C(=O)NN1C(=O)CSC1c1ccccc1` (configuration not stated), for which the TGI in [1], in assay [2], in assay [3], in assay [4], in [5] and in assay [6] was over 100 µM in each case. Moreover, the TGI in assay [7], in assay [8], in assay [9] and in [10] was over 100 µM each time.

On to `CC1(C)CC(=O)C2(CC(CSc3ccccc3)C(CS(=O)(=O)c3ccccc3)C2)C(=O)C1` (configuration not stated), for which the TGI in [1], in assay [2], in [3], in assay [4], in [5] and in assay [6] was over 100 µM each time. The TGI in assay [7], in [8], in assay [9] and in assay [10] was over 100 µM each time.

In the case of `Cc1ccc(S(=O)(=O)Nn2c(O)c(C#N)c(-c3ccc(Cl)cc3)c(C#N)c2=O)cc1`, the TGI in assay [1], in assay [2], in assay [3], in assay [4], in [5] and in assay [7] was over 100 µM in each case. Further, the TGI in assay [8], in assay [9] and in assay [10] was over 100 µM throughout.

For `CCOC(=O)c1cc(C)nc2c1c(=O)n(-c1ccccc1)c(=O)n2CCCCN1CCN(c2ccccc2)CC1`, the TGI in assay [1] is over 100 µM; in assay [2] it was over 100 µM; in assay [3] it was over 100 µM; in [4], over 100 µM; in [5], over 100 µM; in [6], 65.2 µM. Besides, the TGI in [7] was over 100 µM; in assay [8], 99.8 µM; in [9], over 100 µM; in assay [10], over 100 µM.

On to `CCCCCCCCCCCCCCCCCCNc1nc(=O)n(C2CC(O)C(COP(=O)(O)O)O2)cc1F` (configuration not stated), for which the TGI in assay [1], in [2], in assay [3], in assay [4], in assay [5] and in assay [6] was over 100 µM in each case. In addition, the TGI in [7], in assay [8], in assay [9] and in assay [10] was over 100 µM throughout.

On to `COc1ccc(C(SC2C(O)C(CO)OC2n2ccc(=O)[nH]c2=O)(c2ccccc2)c2ccc(OC)cc2)cc1` (configuration not stated), for which the TGI in assay [1] is 43.7 µM; in [2], over 100 µM; in assay [3] it was 31.4 µM; in assay [4], 63.6 µM; in [5], 40.1 µM; in assay [6], 33.4 µM. The TGI in assay [7] is 31.9 µM; in assay [8] it was 33.5 µM; in assay [9], 45.4 µM; in assay [10], 22.8 µM.

For `C=C(C)[C@H]1C2=CC(C)=C(O2)[C@@H](O[C@@H]2c3oc(cc3C)[C@H](C(=C)C)[C@H]3C=C(CC[C@H]2C(=C)C)C(=O)O3)[C@H](C(=C)C)CCC2=C[C@H]1OC2=O`, the TGI in assay [1], in assay [2], in assay [3], in assay [4], in assay [5] and in [6] was over 100 µM in each case. In addition, the TGI in assay [7], in assay [8], in assay [9] and in assay [10] was over 100 µM each time.

In the case of `CN(C)/N=N/c1nc2c(c(=O)n(C)c(=O)n2C)n1CC(O)CO` (configuration not stated), the TGI in [1], in [2], in assay [3], in assay [4], in assay [5] and in assay [6] was over 100 µM each time. The TGI in [7], in [8], in [9] and in assay [10] was over 100 µM in each case.

As for `C=CCOn1c(C=C)nc2ccc(C)cc21`, the TGI in assay [1] is 24.9 µM; in assay [2] it was 55.3 µM; in [3], 30.6 µM; in assay [4], 40.8 µM; in assay [5] it was 80.2 µM; in assay [6] it was 27.4 µM. Besides, the TGI is 37.5 µM in assay [7], 32.3 µM in assay [8], 68.5 µM in assay [9] and 44.5 µM in assay [10].

As for `O=c1[nH]n(Cc2ccccc2)c2ccc([N+](=O)[O-])cc12`, the TGI in [1], in [2], in [3], in assay [4], in assay [5] and in assay [6] was over 100 µM throughout. Also, the TGI in assay [7] was over 100 µM; in [8], over 100 µM; in assay [9] it was over 100 µM; in [10], 85.3 µM.

Turning to `COc1cc(C2C(Cl)C(=O)N2c2c(C)n(C)n(-c3ccccc3)c2=O)ccc1O` (configuration not stated), the TGI was 48.7 µM in assay [1]; over 100 µM in assay [2]; 50.4 µM in [3]; 36.4 µM in assay [4]; 75.5 µM in assay [5]; 32.9 µM in [6]. Further, the TGI was found to be 53.8 µM in assay [7], 40.7 µM in [8], 61.9 µM in [9] and 31.8 µM in [10].

In the case of `COc1ccc(OC)c(SC(CC(=O)c2ccccc2)c2ccccc2)c1` (configuration not stated), the TGI is 13.7 µM in assay [1]; over 100 µM in assay [2]; 36.1 µM in assay [3]; 12.2 µM in assay [4]; 40.2 µM in assay [5]; 24.7 µM in [6]. Further, the TGI in assay [7] worked out at 31.9 µM; in assay [8], 30.7 µM; in assay [9] it was 91.7 µM; in [10] it was 26.7 µM.

In the case of `COc1ccc(C(=O)CC(c2ccccc2)[C@H]2C(c3ccc(OC)cc3)=Nc3c(nc(SC)n(C)c3=O)NC2c2ccccc2)cc1` (some centres not stated), the TGI in assay [1], in assay [2], in [3], in assay [4], in assay [5] and in [7] was over 100 µM throughout. The TGI in assay [8], in assay [9] and in [10] was over 100 µM throughout.

On to `COc1cccc(N=N/C(=N\NC(=O)c2ccc(C)cc2)c2ccc(N(CCC#N)CCC#N)cc2C)c1`, for which the TGI in assay [1], in assay [2], in assay [3], in assay [4], in assay [5] and in assay [6] was over 100 µM each time. The TGI in assay [7], in [8], in assay [9] and in assay [10] was over 100 µM in each case.

Regarding `COc1ccc(Nc2ccc3ccccc3c2-c2c(O)ccc3ccccc23)cc1`, the TGI in assay [1] came out at 25.6 µM; in assay [2], 54.4 µM; in [3], 28.3 µM; in assay [4] it was 28.2 µM; in assay [5], 35.9 µM; in assay [6], 26.4 µM. The TGI worked out at 30.5 µM in [7], 58.9 µM in assay [8] and 20.3 µM in [10].

On to `CN(Cc1cnc2nc(N)nc(N)c2n1)c1ccc(C(=O)NC(CO)CCCO)cc1` (configuration not stated), for which the TGI in assay [1], in assay [2], in assay [3], in [4], in [5] and in [6] was over 100 µM in each case. Besides, the TGI in assay [7], in assay [8] and in assay [10] was over 100 µM each time.

With `NCC(O)CSCc1ccc(Cl)cc1` (configuration not stated), the TGI in assay [1], in assay [2], in [4], in [5], in assay [6] and in [7] was over 100 µM in each case. Besides, the TGI in assay [8], in assay [9] and in assay [10] was over 100 µM each time.

Source of the values: PubChem BioAssay (NCI).
